Experiments:
[1] = tested on: Yellow Fever Mosquito (Aedes aegypti, AEDSAE) larvae; test: Bioassay on yellow fever mosquito (YFM), 96-well plate larval assay; type: in vivo; conditions: 4000 ppm (master plate solution), about 1 day-old larvae, 3 days
Experimental: Example B: Bioassays on Yellow Fever Mosquito (Aedes aegypti, AEDSAE) (“YFM”)
Master plates containing 400 μg of a molecule dissolved in 100 μL of dimethyl sulfoxide (DMSO) (equivalent to a 4000 ppm solution) are used. A master plate of assembled molecules contains 15 μL per well. To this plate, 135 μL of a 90:10 water/acetone mixture is added to each well. A robot (Biomek® NXP Laboratory Automation Workstation) is programmed to dispense 15 μL aspirations from the master plate into an empty 96-well shallow plate (“daughter” plate). There are 6 reps (“daughter” plates) created per master. The created “daughter” plates are then immediately infested with YFM larvae.
The day before plates are to be treated, mosquito eggs are placed in Millipore water containing liver powder to begin hatching (4 g into 400 mL). After the “daughter” plates are created using the robot, they are infested with 220 μL of the liver powder/larval mosquito mixture (about 1 day-old larvae). After plates are infested with mosquito larvae, a non-evaporative lid is used to cover the plate to reduce drying. Plates are held at room temperature for 3 days prior to grading. After 3 days, each well is observed and scored based on mortality.

[2] = tested on: Beet Armyworm (Spodoptera exigua, LAPHEG) second instar larva; test: Bioassay on beet armyworm (BAW), 128-well diet tray assay; type: in vivo; conditions: 50 μg/cm^2 on artificial diet, 25° C., five days
Outline: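 Test molecule in 90:10 acetone–water applied at 50 μg/cm^2 onto 1 mL artificial diet and dried; one second-instar larva per well, eight wells. Held 5 days at 25 °C, 14:10 light–dark; percent mortality averaged over the eight wells.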

SMILES | activity against YFM (scored based on mortality) [1] | activity against BAW (percent mortality, averaged over eight wells) [2]
Cc1cccc(C(=O)Nc2cc(NC(=O)[C@H]3[C@H](c4cc(Cl)cc(Cl)c4)C3(Cl)Cl)ccc2Cl)c1 (racemic) [F74, trans-rac-N-(2-Chloro-5-(2,2-dichloro-3-(3,5-dichlorophenyl)cyclopropane-1-carboxamido)phenyl)-3-methylbenzamide] | exhibited activity | exhibited activity
COc1cccc(C(=O)Nc2cc(NC(=O)[C@H]3[C@H](c4cc(Cl)cc(Cl)c4)C3(Cl)Cl)ccc2Cl)c1 (racemic) [F84, trans-rac-N-(2-Chloro-5-(2,2-dichloro-3-(3,5-dichlorophenyl)cyclopropane-1-carboxamido)phenyl)-3-methoxybenzamide] | exhibited activity | exhibited activity
O=C(Nc1ccc(Cl)c(NC(=O)C(F)(F)C(F)(F)C(F)(F)F)c1)[C@H]1[C@H](c2cc(Cl)cc(Cl)c2)C1(Cl)Cl (racemic) [F56, trans-rac-2,2-Dichloro-N-(4-chloro-3-(2,2,3,3,4,4,4-heptafluorobutanamido)phenyl)-3-(3,5-dichlorophenyl)cyclopropane-1-carboxamide] | exhibited activity | exhibited activity
Cc1c(C(=O)Nc2cc(NC(=O)[C@H]3[C@H](c4ccc(F)c(C(F)(F)F)c4)C3(Cl)Cl)ccc2Cl)ccc(NC(=O)CC(F)(F)F)c1F (racemic) [F114, trans-rac-N-(2-Chloro-5-(2,2-dichloro-3-(4-fluoro-3-(trifluoromethyl)phenyl)cyclopropane-1-carboxamido)phenyl)-3-fluoro-2-methyl-4-(3,3,3-trifluoropropanamido)benzamide] | exhibited activity | exhibited activity
COCC(=O)Nc1cccc(NC(=O)[C@H]2[C@H](c3cc(Cl)cc(Cl)c3)C2(Cl)Cl)c1 (racemic) [F4, trans-rac-2,2-Dichloro-3-(3,5-dichlorophenyl)-N-(3-(2-methoxyacetamido)phenyl)cyclopropane-1-carboxamide] | exhibited activity | exhibited activity
N#Cc1ccc(C(=O)Nc2cc(NC(=O)[C@H]3[C@H](c4cc(Cl)cc(Cl)c4)C3(Cl)Cl)ccc2Cl)cc1F (racemic) [F72, trans-rac-N-(2-Chloro-5-(2,2-dichloro-3-(3,5-dichlorophenyl)cyclopropane-1-carboxamido)phenyl)-4-cyano-3-fluorobenzamide] | exhibited activity | exhibited activity
COCC(=O)Nc1cc(NC(=O)[C@H]2[C@H](c3cc(Cl)cc(Cl)c3)C2(Cl)Cl)ccc1Cl (racemic) [F39, trans-rac-2,2-Dichloro-N-(4-chloro-3-(2-methoxyacetamido)phenyl)-3-(3,5-dichlorophenyl)cyclopropane-1-carboxamide] | exhibited activity | exhibited activity
Cc1cc(F)ccc1C(=O)Nc1cc(NC(=O)[C@H]2[C@H](c3cc(Cl)cc(Cl)c3)C2(Cl)Cl)ccc1Cl (racemic) [F77, trans-rac-N-(2-Chloro-5-(2,2-dichloro-3-(3,5-dichlorophenyl)cyclopropane-1-carboxamido)phenyl)-4-fluoro-2-methylbenzamide] | exhibited activity | exhibited activity
O=C(Nc1c(F)ccc(NC(=O)[C@H]2[C@H](c3cc(Cl)c(Cl)c(Cl)c3)C2(Cl)Cl)c1F)C1CCCO1 (stereo partly drawn) [F11, N-(3-((1R,3R)-2,2-Dichloro-3-(3,4,5-trichlorophenyl)cyclopropane-1-carboxamido)-2,6-difluorophenyl)tetrahydrofuran-2-carboxamide] | exhibited activity | exhibited activity
O=C(Nc1cccc(NC(=O)[C@H]2[C@H](c3cc(Cl)cc(Cl)c3)C2(Cl)Cl)c1F)c1ccc(F)cc1F [F16, N-(3-((1R,3R)-2,2-Dichloro-3-(3,5-dichlorophenyl)cyclopropane-1-carboxamido)-2-fluorophenyl)-2,4-difluorobenzamide] | exhibited activity | exhibited activity
O=C(CCC(F)(F)F)Nc1cc(NC(=O)[C@H]2[C@H](c3cc(Cl)cc(Cl)c3)C2(Cl)Cl)ccc1Cl (racemic) [F7, trans-rac-2,2-dichloro-N-(4-chloro-3-(4,4,4-trifluorobutanamido)phenyl)-3-(3,5-dichlorophenyl)cyclopropane-1-carboxamide] | exhibited activity | exhibited activity
O=C(Nc1cc(NC(=O)[C@H]2[C@H](c3cc(Cl)cc(Cl)c3)C2(Cl)Cl)ccc1F)c1cc(F)cc(F)c1 (racemic) [F62, trans-rac-N-(5-(2,2-Dichloro-3-(3,5-dichlorophenyl)cyclopropane-1-carboxamido)-2-fluorophenyl)-3,5-difluorobenzamide] | exhibited activity | exhibited activity
O=C(Nc1cccc(NC(=O)C(F)(F)C(F)(F)C(F)(F)F)c1F)[C@H]1[C@H](c2cc(Cl)cc(Cl)c2)C1(Cl)Cl [F19, (1R,3R)-2,2-Dichloro-3-(3,5-dichlorophenyl)-N-(2-fluoro-3-(2,2,3,3,4,4,4-heptafluorobutanamido)phenyl)cyclopropane-1-carboxamide] | exhibited activity | exhibited activity
CC(CC(=O)Nc1cc(NC(=O)C2C(c3cc(Cl)cc(Cl)c3)C2(Cl)Cl)ccc1F)C(F)(F)F (racemic) [F64, trans-rac-2,2-Dichloro-3-(3,5-dichlorophenyl)-N-(4-fluoro-3-(4,4,4-trifluoro-3-methylbutanamido)phenyl)cyclopropane-1-carboxamide] | exhibited activity | exhibited activity
O=C(Nc1cc(NC(=O)[C@H]2[C@H](c3ccc(F)c(C(F)(F)F)c3)C2(Cl)Cl)ccc1Cl)c1ccc(NC(=O)C(F)(F)F)cc1F (racemic) [F112, trans-rac-N-(2-Chloro-5-(2,2-dichloro-3-(4-fluoro-3-(trifluoromethyl)phenyl)cyclopropane-1-carboxamido)phenyl)-2-fluoro-4-(2,2,2-trifluoroacetamido)benzamide] | exhibited activity | exhibited activity
O=C(Nc1cc(NC(=O)[C@H]2[C@H](c3cc(Cl)cc(Cl)c3)C2(Cl)Cl)ccc1Cl)c1ccc(C(F)(F)F)cc1 (racemic) [F82, trans-rac-N-(2-Chloro-5-(2,2-dichloro-3-(3,5-dichlorophenyl)cyclopropane-1-carboxamido)phenyl)-4-(trifluoromethyl)benzamide] | exhibited activity | exhibited activity
CCCC(=O)Nc1c(F)ccc(NC(=O)[C@H]2[C@H](c3cc(Cl)c(Cl)c(Cl)c3)C2(Cl)Cl)c1F [F14, (1R,3R)—N-(3-Butyramido-2,4-difluorophenyl)-2,2-dichloro-3-(3,4,5-trichlorophenyl)cyclopropane-1-carboxamide] | exhibited activity | exhibited activity
O=C(Nc1cc(NC(=O)[C@H]2[C@H](c3cc(Cl)cc(Cl)c3)C2(Cl)Cl)ccc1Cl)c1ccno1 (racemic) [F35, trans-rac-N-(2-Chloro-5-(2,2-dichloro-3-(3,5-dichlorophenyl)cyclopropane-1-carboxamido)phenyl)isoxazole-5-carboxamide] | exhibited activity | exhibited activity
O=C(Nc1cc(NC(=O)[C@H]2[C@H](c3cc(Cl)cc(Cl)c3)C2(Cl)Cl)ccc1Cl)c1cc(F)ccc1F (racemic) [F69, trans-rac-N-(2-Chloro-5-(2,2-dichloro-3-(3,5-dichlorophenyl)cyclopropane-1-carboxamido)phenyl)-2,5-difluorobenzamide] | exhibited activity | exhibited activity

From patent publication US20240343681A1, “MOLECULES HAVING PESTICIDAL UTILITY AND INTERMEDIATES AND PROCESSES RELATED THERETO” (priority 2021, published 2024)
